Tests used:
[1] = test system: HepG2 cells; test: Epo elaboration by HepG2 cells (ELISA); type: cell-based, human; settings: for reduction in Epo elaboration: HepG2, 10 ng/ml, 24 h exposure
Experimental: HepG2 cells, acquired from American Type Culture Collection (ATCC, Manassas, Va.), were grown in EMEM supplemented with 10% FBS and 1% penicillin/streptomycin solution. Cells were maintained at 37° C. under 5% CO2.
Quantitation of human S100A9/MRP14 in patient serum and supernatant of the HepG2 cell line was performed using CircuLex S100A9/MRP14 ELISA Kit (MBL, Nagano, Japan). Quantitative measurement of human TNFα and IL-1β from serum patients and supernatant of HepG2 cell line were performed using Human IL-1β ELISA Kit and Human TNFα ELISA Kit (Life Technologies, Carlsbad, Calif., USA). Quantitation of human Epo in patient serum and HepG2 cell line supernatant was performed using Human Erythropoietin ELISA kit (Stemcell Technologies, Vancouver, BC, Canada). All samples were performed in duplicate.

[2] = test system: SF3B1-K700E mutant-expressing BM cells; test: Nuclear β-catenin confocal microscopy in SF3B1-K700E BM cells; type: cell-based, mouse; settings: 24 hours treatment
Experimental: (§1) MDS and normal donor BM-MNC and mouse BM cells were stained with 30×FAM-FLICA® Caspase-1 solution at a ratio of 1:30 for 2 hours at 37° C. Cells were washed and cytospins were generated using a 5 minutes centrifugation at 450 rpm. Slides were fixed at 37° C. for 10 minutes using BD Cytofix Fixation Buffer (BD Biosciences), and subsequently washed using PBS. Cells were permeabilized with 0.1% Triton X-100/2% BSA in PBS for 15 minutes at room temperature. After washing with PBS, cells were blocked using 2% BSA in PBS for 30 minutes at room temperature, and washed again. Cells were incubated with the appropriate primary antibody overnight (1:400 for NLRP3, 1:20 for β-catenin) at 4° C. The next day, cells were washed with PBS and incubated with the appropriate secondary antibodies (1:500) for 1 hour at room temperature. After washing, cells were covered with ProLong Gold Antifade Reagent with DAPI prior to the addition of a coverslip (Life Technologies). Co-localization of a-caspase-1 with NLRP3 inflammasome complexes was assessed using a Leica TCS SP5 AOBS Laser Scanning Confocal microscope (Leica Microsystems). Analysis of the inflammasome images was performed with Definiens Developer 2.0 (Definiens AG). The software was used to segment cells based on brightness and size thresholds, followed by a watershed segmentation algorithm. […]

[3] = test system: SF3B1-K700E mutant-expressing BM cells; test: ASC staining flow cytometry (inflammasome formation) in SF3B1-K700E BM cells; type: cell-based, mouse; settings: 24 hours treatment
Experimental: Staining was carried out as described ([…], et al. J Immunol. 2015 194(1):455-62). Briefly, cell pellets were resuspended in 1 mL of prewarmed BD Permeabilization Buffer III, and incubated on ice for 30 minutes. Cells were washed 2× with staining buffer. Following washing, cells were stained with rabbit-anti-ASC primary antibodies at a 1:1500 dilution and incubated for 90 minutes. Cells were washed, stained with secondary antibodies at a dilution of 1:1500, and incubated for 45 minutes. Cells were washed, and sample acquisitions were carried out using a BD LSR II flow cytometer and FACSDiva software.

[4] = test system: SF3B1-K700E-expressing mutant BM cells; test: ROS detection in SF3B1-K700E BM cells; type: cell-based, mouse
Source text: ROS were detected using CM-H2DCFDA and Cell ROX® Deep Red Reagent according to manufacturer's protocol (Life Technologies).

[5] = test system: U2AF1-S34F mutant cells; test: Nuclear β-catenin confocal microscopy in U2AF1-S34F mutant TF-1 cells; type: cell-based; settings: 24 hours treatment
[6] = test system: normal BM-MNC; test: Nuclear β-catenin confocal microscopy in normal BM-MNC; type: cell-based, human; settings: normal BM-MNC treated with S100A9 plus anti-oxidant
Experimental: as §1

[7] = test system: MDS patients; settings: MDS patients; cited from earlier work

Row | Compound | reduction in Epo elaboration [1] [%] | percentage of cells with elevated levels of nuclear β-catenin [2] | inflammasome formation (ASC) [3] | mean percentage of ROS+ cells and ROS MFI [4] | β-catenin activation in mutant cells [5] | also measured
1 | IL-1β: inflammatory cytokine interleukin-1β purchased from Sigma-Aldrich | 60 | – | – | – | – | –
2 | c1ccc2c(c1)[I+]c1ccccc1-2 [DPI] | – | significantly reduced | significantly reduced | extinguished below the level of WT controls | effectively reduced | –
3 | CC(=O)N[C@@H](CS)C(=O)O [NAC, N-acetylcysteine] | – | significantly reduced | significantly reduced | extinguished below the level of WT controls | effectively reduced | S100A9-triggered nuclear translocation of β-catenin [6]: abolished
4 | erythropoietin: erythropoietin treatment for anemia in MDS | – | – | – | – | – | patients with MDS in whom treatment may improve anemia [7]: 15-20%
5 | TNFα | 40 | – | – | – | – | suppression of Epo production by the inflammatory protein alone ([1]; HepG2, vehicle control arm of lenalidomide experiment, S100A9 1 μg/ml or TNFα 10 ng/ml): 30%

Source: patent publication US10697970B2, “S100A9 levels for predicting lenalidomide and erythropoietin responsiveness” (H. LEE MOFFITT CANCER CENTER AND RESEARCH INSTITUTE, INC., priority 2015, dated 2020)
